We go through 18 compounds from ChEMBL document CHEMBL1146137, “Synthesis and evaluation of febrifugine analogues as potential antimalarial agents” (Bioorg Med Chem Lett, 2006).

pIC50: −log10 of the molar value.

Test [1] deals with Plasmodium falciparum. In words: Antimalarial activity against chloroquine-sensitive Plasmodium falciparum D6. Format: functional, organism-based.
Test [2] has as its system Plasmodium falciparum. The experiment in a line: Antimalarial activity against chloroquine-resistant Plasmodium falciparum W2. Format: functional, organism-based.
The test system of another test is Hepatocyte. In words: Cytotoxicity against rat hepatocytes. The test is classed as functional, cell-based.

Consider `O=C(C[C@H]1NCCC[C@@H]1O)Cn1cnc2cccnc2c1=O`, for which the pIC50 in the test with Plasmodium falciparum [1] was 8.92; in the test on Plasmodium falciparum [2], 8.89; with Hepatocyte it was 4.74.

As for `CC(C)(C)c1cccc2ncn(CC(=O)C[C@H]3NCCC[C@@H]3O)c(=O)c12`, the negative-log IC50 (pIC50) is 6.88 in the test with Plasmodium falciparum [1], 6.80 in the test on Plasmodium falciparum [2] and 4.15 in the test on Hepatocyte.

With `COc1cccc2c(=O)n(CC(=O)C[C@H]3NCCC[C@@H]3O)cnc12`, the pIC50 is 8.92 in the test on Plasmodium falciparum [1], 8.89 in the test on Plasmodium falciparum [2] and 7.80 in the test with Hepatocyte.

On to `O=C(C[C@H]1NCCC[C@@H]1O)Cn1cnc2ncccc2c1=O`, for which the results for the pIC50 in the test with Plasmodium falciparum [1], in the test with Plasmodium falciparum [2] and in the test on Hepatocyte were 7.15, 6.96 and 4.66, respectively.

For the compound `CC(C)(C)c1ccc2ncn(CC(=O)C[C@H]3NCCC[C@@H]3O)c(=O)c2c1`, the negative-log IC50 (pIC50) was 6.78 in the test with Plasmodium falciparum [1] and 6.73 in the test on Plasmodium falciparum [2].

As for `O=C(C[C@H]1NCCC[C@@H]1O)Cn1cnc2ccc(F)c(F)c2c1=O`, the results for the negative logarithm of the IC50 (pIC50) with Plasmodium falciparum [1], in the test with Plasmodium falciparum [2] and in the test with Hepatocyte were 9.48, 9.41 and 4.77, respectively.

For `O=C(C[C@H]1NCCC[C@@H]1O)Cn1cnc2cnccc2c1=O`, the negative-log IC50 (pIC50) in the test on Plasmodium falciparum [1] was 7.20; in the test on Plasmodium falciparum [2], 7.14; with Hepatocyte, 4.72.

Regarding `Cc1cccc2c(=O)n(CC(=O)C[C@H]3NCCC[C@@H]3O)cnc12`, the pIC50 is 8.77 with Plasmodium falciparum [1], 8.72 in the test with Plasmodium falciparum [2] and 6.85 in the test on Hepatocyte.

In the test with Hepatocyte, `CCN(CC)CCCC(C)Nc1ccnc2cc(Cl)ccc12` (stereo unspecified) [CHLOROQUINE] had a pIC50 of 4.72.

Turning to `O=C(C[C@H]1NCCC[C@@H]1O)Cn1cnc2c(F)cccc2c1=O`, the pIC50 is 6.99 with Plasmodium falciparum [1], 7.00 in the test on Plasmodium falciparum [2] and 4.80 with Hepatocyte.

For `O=C(C[C@H]1NCCC[C@@H]1O)Cn1cnc2ccc(C(F)(F)F)cc2c1=O`, the pIC50 in the test with Plasmodium falciparum [1] was 7.85; in the test on Plasmodium falciparum [2], 7.80; with Hepatocyte, 4.82.

Regarding `O=C(C[C@@H]1NCCC[C@H]1O)Cn1cnc2ccccc2c1=O` [FEBRIFUGINE], the pIC50 with Plasmodium falciparum [1] is 8.80; in the test on Plasmodium falciparum [2] it was 8.72; with Hepatocyte, 6.77.

Take `COc1ccc2c(=O)n(CC(=O)C[C@H]3NCCC[C@@H]3O)cnc2c1`: the pIC50 with Plasmodium falciparum [1] was 8.85; in the test with Plasmodium falciparum [2], 8.89; in the test on Hepatocyte it was 7.82.

With `Cc1ccc2c(=O)n(CC(=O)C[C@H]3NCCC[C@@H]3O)cnc2c1`, the pIC50 was 8.70 with Plasmodium falciparum [1], 8.66 in the test with Plasmodium falciparum [2] and 6.93 with Hepatocyte.

In the case of `O=C(C[C@H]1NCCC[C@@H]1O)Cn1cnc2cccc(F)c2c1=O`, the figures for the negative logarithm of the IC50 (pIC50) in the test on Plasmodium falciparum [1], with Plasmodium falciparum [2] and with Hepatocyte were 8.89, 8.89 and 4.72, respectively.

For `O=C(C[C@H]1NCCC[C@@H]1O)Cn1cnc2ccc(F)cc2c1=O`, the pIC50 in the test on Plasmodium falciparum [1] is 8.33; with Plasmodium falciparum [2], 8.30; in the test with Hepatocyte, 4.89.

As to `O=C(C[C@H]1NCCC[C@@H]1O)Cn1cnc2ccncc2c1=O`, the negative logarithm of the IC50 (pIC50) was 8.82 with Plasmodium falciparum [1], 8.74 in the test on Plasmodium falciparum [2] and 4.77 with Hepatocyte.

For `O=C(C[C@H]1NCCC[C@@H]1O)Cn1cnc2cccc(C(F)(F)F)c2c1=O`, the pIC50 with Plasmodium falciparum [1] is 9.37; with Plasmodium falciparum [2], 9.39; in the test on Hepatocyte, 4.72.

For orientation: pIC50 means the IC50 on a negative log10 scale, so that one unit is a factor of ten.
